Values joined by “and” are separate entries in the source; they are usually repeats but may differ in a detail not shown here. Identical values can stand only once. “Also recorded” adds a separate entry of the source.

One experiment concerns the target human CB2 receptors (Homo sapiens, UniProt P34972). Format: binding. The conditions noted are these: ratio of Ki to Ki of 1.
Experiment [1] concerns the target HEK293 cells stably expressing CB2 (Homo sapiens, UniProt P34972). Format: cell-based. The conditions noted are these: 1 µM compound.
The next experiment deals with CB1 S7.39A mutation. The conditions noted are these: cited from earlier work.
The test system of experiment [2] is CB2 receptor-transfected Chinese hamster cells. The conditions noted are these: cited from earlier work.
In another experiment the test system is CB2 W5.43(194)Y mutation. The conditions noted are these: cited from earlier work.
A further experiment relates to CB2 W5.43A/F mutations. The conditions noted are these: suggesting a misfolded protein; cited from earlier work.
Another experiment concerns CB2 S4.53(161)A mutation. The conditions noted are these: cited from earlier work.
In a further experiment the test system is CB2 S4.57(165)A mutation. The conditions noted are these: cited from earlier work.

human CB2 receptors, sequence (P34972 whole entry): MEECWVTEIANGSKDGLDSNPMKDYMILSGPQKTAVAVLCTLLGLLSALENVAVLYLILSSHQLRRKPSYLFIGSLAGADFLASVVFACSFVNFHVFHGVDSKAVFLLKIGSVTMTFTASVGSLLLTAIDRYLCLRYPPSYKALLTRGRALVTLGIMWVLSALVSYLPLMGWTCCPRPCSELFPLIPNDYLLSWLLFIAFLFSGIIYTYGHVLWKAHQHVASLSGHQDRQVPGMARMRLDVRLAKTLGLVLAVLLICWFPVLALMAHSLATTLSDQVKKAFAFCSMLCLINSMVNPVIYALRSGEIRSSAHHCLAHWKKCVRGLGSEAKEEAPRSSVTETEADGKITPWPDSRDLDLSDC
HEK293 cells stably expressing CB2, sequence (P34972 whole entry): as above

In the case of `Cc1ccc(Cn2cc(/C=C/[C@@H]3C(C)(C)[C@@H]4CC[C@@]3(C)C4)cc2-c2ccc(Cl)c(C)c2)cc1` [Compound 4, 5-(4-Chloro-3-methylphenyl)-1-[(4-methylphenyl)methyl]-3-[(E)-2-[(1S,2S,4R)-1,3,3-trimethylbicyclo[2.2.1]heptan-2-yl]ethenyl]-1H-pyrrole], the “fold loss of CB2 affinity compared to 1” value at human CB2 receptors is 547 fold. Besides, the “antagonism of CP55940 effect in the cAMP assay” value (shortened to “antagonism of CP55940 effect”) in experiment [1] was “lack antagonist properties”.

On to `Cc1cc(-c2cc(C(=O)N[C@@H]3C(C)(C)[C@@H]4CC[C@@]3(C)C4)nn2-c2ccccc2)ccc1Cl` [Compound 6, 5-(4-Chloro-3-methylphenyl)-1-phenyl-N-{1,3,3-trimethylbicyclo[2.2.1]heptan-2-yl}-1H-pyrazole-3-carboxamide], for which, on human CB2 receptors, the “fold loss of CB2 affinity compared to 1” value is reported as 42 fold. In addition, in experiment [1], the “antagonism of CP55940 effect” value is “no antagonism; also recorded: lack antagonist properties”.

For the compound `Cc1ccc(Cn2cc(C(=O)N[C@@H]3C(C)(C)[C@@H]4CC[C@@]3(C)C4)cc2-c2ccc(Cl)c(C)c2)cc1` [Compound 3, 5-(4-Chloro-3-methyl-phenyl)-1-(4-methyl-benzyl)-1H-pyrrole-3-carboxylic acid (1,3,3-trimethyl-bicyclo[2.2.1]hept-2-yl)-amide], the “fold loss of CB2 affinity compared to 1” value on human CB2 receptors was 7 fold and 6.8 fold. Besides, the “antagonism of CP55940 effect” value in experiment [1] is listed as “more potent CB2 antagonist than 1; also recorded: antagonize the cAMP effects of CP55940”.

In the case of `Cc1ccc(Cn2nc(C(=O)N[C@@H]3C[C@@H]4CC[C@@]3(C)C4(C)C)cc2-c2ccc(Cl)c(C)c2)cc1` [Compound 5, 5-(4-Chloro-3-methylphenyl)-1-[(4-methylphenyl)methyl]-N-[(1S,2R,4S)-1,7,7-trimethylbicyclo[2.2.1]heptan-2-yl]-1H-pyrazole-3-carboxamide], at human CB2 receptors, the “fold loss of CB2 affinity compared to 1” value is 13 fold. In addition, in experiment [1], the “antagonism of CP55940 effect” value is listed as “antagonize the cAMP effects of CP55940”.

For `Cc1ccc(Cn2nc(/C=C/[C@@H]3C(C)(C)[C@@H]4CC[C@@]3(C)C4)cc2-c2ccc(Cl)c(C)c2)cc1` [Compound 2, 5-(4-Chloro-3-methylphenyl)-1-(4-methyl-benzyl)-3-[(E)-2-endo-(1,3,3-trimethyl-bicyclo[2.2.1]hept-2-yl)-vinyl]-1H-pyrazole], the “fold loss of CB2 affinity compared to 1” value on human CB2 receptors is 236 fold. Moreover, the “antagonism of CP55940 effect” value in experiment [1] is listed as “lack antagonist properties”.

As for `CCCCCCC(C)(C)c1ccc([C@@H]2C[C@H](O)CC[C@H]2CCCO)c(O)c1` [CP-55,940], the “effect of mutation on binding” value in the experiment on CB1 S7.39A mutation is “loss of binding”.

On to `CCCCCCC(C)(C)c1cc(O)c2c(c1)OC(C)(C)[C@@H]1CC=C(CO)C[C@@H]21` [HU210], for which the “effect of mutation on binding” value with CB1 S7.39A mutation is given as “reduction in binding”.

`Cc1ccc(Cn2nc(C(=O)N[C@@H]3C(C)(C)[C@@H]4CC[C@@]3(C)C4)cc2-c2ccc(Cl)c(C)c2)cc1` [Compound 1, N-[(1S)-endo-1,3,3-trimethylbicyclo[2.2.1]heptan2-yl]-5-(4-chloro-3-methylphenyl)-1-[(4-methylphenyl)methyl]-1H-pyrazole-3-carboxamide]: the “antagonism of CP55940 effect” value in experiment [1] is reported as “antagonize the effects of CP-55,940; also recorded: antagonize the cAMP effects of CP55940”. For the same compound, in experiment [2], the “effect on high constitutive activity of CB2” value was “inverse agonist”. Also, the “effect of mutation on binding” value is “decrease in the binding” with CB2 W5.43(194)Y mutation, “no detectable binding” in the experiment with CB2 W5.43A/F mutations, “abolished the binding” with CB2 S4.53(161)A mutation and “abolished the binding” in the experiment with CB2 S4.57(165)A mutation.

Source of the values: article PMC3804063 (Journal of medicinal chemistry, 2013).
